# System: large hemispheric infarction (LHI) patients at high risk for cerebral edema
# Experiment: CHARM trial: intravenous glibenclamide in large hemispheric infarction, 90-day mRS shift analysis
# Format: in vivo, human
# Settings: for common odds ratio (cOR), 90-day mRS: versus placebo; for lesion volume at which cOR crosses the "no effect" point (cOR=1.0): 90-day mRS, mRS 5 and 6 combined
# From the text: The CHARM trial evaluated the safety and efficacy of intravenous glibenclamide as a treatment for large hemispheric infarction (LHI) patients at high risk for cerebral edema.
# Patients meeting the following criteria were included: • A clinical diagnosis of acute ischemic stroke in the middle cerebral artery (MCA) territory. • A large hemispheric infarction defined as; lesion volume of 80 to 300 centimeters cubed (cm^3) on magnetic resonance imaging (MRI) diffusion-weighted imaging (DWI), or computed tomography perfusion (CTP), or an Alberta Stroke Program Early CT Score (ASPECTS) of 1 to 5 with involvement of at least 2 defined cortical regions. • Screening National Institutes of Health Stroke Scale (NIHSS) >=10. • At the time of randomization, and in the Investigator's judgement, it must be feasible for study drug treatment infusion to be initiated no later than 10 hours after time of symptom onset, if known, or the time last known normal. • Participants who wake with stroke may be included if neurological and other exclusion criteria are satisfied. The time of stroke onset is to be taken as the midpoint between sleep onset (or last known to be normal) and time of waking. • For participants who receive thrombectomy, inclusion into the study must be based on post-thrombectomy MRI-DWI.
# Patients meeting the following criteria were excluded: • Participant is likely to have supportive care withdrawn on the first day. • Commitment to decompressive craniectomy (DC) prior to enrollment. • Evidence of concurrent infarction in the contralateral hemisphere sufficiently serious so as to affect functional outcome. Pre-Specified Primary Endpoint • Modified Rankin Scale (mRS) score at 90 days analyzed as a shift analysis using a 5-category ordinal scale with 0/1 and 5/6 collapsed. The primary efficacy analysis was pre-specified to be conducted in participants 18-70 years of age (inclusive) who were randomized and receive study treatment (the modified intent-to-treat [mITT] population].
# Five hundred thirty-five subjects were enrolled, with 268 treated with placebo and 267 treated with intravenous glyburide. The mITT population (the primary analysis population), those participants aged […] years who received any study drug, consisted of 431 subjects.
# An interaction term between treatment arm and stroke volume was included in an ordinal logistic regression model with 90-day mRS as the dependent variable. Independent variables included age, sex, baseline NIHSS, world region, tissue plasminogen activator, and thrombectomy.
structure (smiles),measurement,setting,value
COc1ccc(Cl)cc1C(=O)NCCc1ccc(S(=O)(=O)NC(=O)NC2CCCCC2)cc1 [glibenclamide],"common odds ratio (cOR), 90-day mRS","mITT subjects given glyburide in combination with thrombectomy (n=81), 95% CI 1.10-20.1, p=0.037",4.69
same,"lesion volume at which cOR crosses the ""no effect"" point (cOR=1.0)",mITT subjects with CTP or DWI baseline volume,about 140 cm^3
same,"lesion volume at which cOR crosses the ""no effect"" point (cOR=1.0)","mITT subjects with CTP or DWI baseline volume, listed as glyburide",approximately 140 cm^3
same,"common odds ratio (cOR), 90-day mRS","mITT subjects with CTP or DWI baseline volume, lesion volume less than 85 cm^3, ordinal logistic regression, mRS 0/1 and 5/6 collapsed",about 6
same,"common odds ratio (cOR), 90-day mRS","mITT, baseline stroke volume ≤120 cm^3 subgroup, 95% CI 1.07-5.01, p=0.034",2.31
